# Reference: paper PMC6689431 (Biochimica et biophysica acta. Biomembranes, 2019)
# What was measured:
# [1] = Fluorescence intensity of TAMRA-labeled peptides at different pH / buffers; type: physicochemical; conditions: 0.2 µM peptide; for fluorescence intensity in Tris buffer pH 8: 50 mM Tris pH 8, λex 544/λem 590 nm, mean ± SD
# [2] = Fluorescence intensity of TAMRA-labeled peptides with detergents; type: physicochemical; conditions: 0.2 µM peptide, 50 mM Tris pH 8 + 0.1% (w/v) SDS, no cells, λex 544/λem 590 nm
Substance,fluorescence intensity in Tris buffer pH 8 [1],increase of fluorescence intensity in Tris+SDS compared to Tris buffer alone [2] [×],"decrease of fluorescence intensity, citric acid versus Tris buffer, both pH 8 [1] [%]"
^*-GRKKRRQRRRPPQ-ANSRWPTSII [*Tat-iCAL36],"103,693 ± 2,848",–,–
^*-RLWRLLWRLWRRLWRLLR-ANSRWPTSII [*C6M1-iCAL36],–,9,–
^*-LLRLLRWWWRLLRLL-ANSRWPTSII [*WRAP5-iCAL36],–,15,–
^*-GALFLGWLGAAGSTMGAWSQPKKKRKV-ANSRWPTSII [*MPG-iCAL36],"68,132 ± 5,731",7,36
